According to PubChem BioAssay (NCI):
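Interpolation was linear, between the two tested concentrations surrounding the appropriate level; five concentrations were tested over 48 hours in 96-well plates. TGI: concentration producing complete growth inhibition.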

Legend:
Experiment in all cases: growth of human tumour cells (NCI), 48 h
HT29 colon = tested on: HT29 colon
SNB-75 CNS = tested on: SNB-75 CNS
CAKI-1 renal = tested on: CAKI-1 renal
A498 renal = tested on: A498 renal
SK-MEL-2 melanoma = tested on: SK-MEL-2 melanoma
SNB-19 CNS = tested on: SNB-19 CNS
U251 CNS = tested on: U251 CNS
SF-539 CNS = tested on: SF-539 CNS
A549 NSCLC = tested on: A549 NSCLC
OVCAR-4 ovarian = tested on: OVCAR-4 ovarian
SN12C renal = tested on: SN12C renal
HS 578T breast = tested on: HS 578T breast
OVCAR-3 ovarian = tested on: OVCAR-3 ovarian
HCC-2998 colon = tested on: HCC-2998 colon
SK-MEL-28 melanoma = tested on: SK-MEL-28 melanoma
HCT-15 colon = tested on: HCT-15 colon
UACC-257 melanoma = tested on: UACC-257 melanoma
COLO 205 colon = tested on: COLO 205 colon
T-47D breast = tested on: T-47D breast
SK-OV-3 ovarian = tested on: SK-OV-3 ovarian
OVCAR-8 ovarian = tested on: OVCAR-8 ovarian
SK-MEL-5 melanoma = tested on: SK-MEL-5 melanoma
HL-60(TB) leukemia = tested on: HL-60(TB) leukemia
MOLT-4 leukemia = tested on: MOLT-4 leukemia
NCI-H23 lung = tested on: NCI-H23 lung
IGROV1 ovarian = tested on: IGROV1 ovarian
SF-268 CNS = tested on: SF-268 CNS
OVCAR-5 ovarian = tested on: OVCAR-5 ovarian
MDA-MB-231 breast = tested on: MDA-MB-231 breast
MDA-MB-435 = tested on: MDA-MB-435
MDA-N = tested on: MDA-N
K-562 leukemia = tested on: K-562 leukemia
786-0 renal = tested on: 786-0 renal
NCI-H226 lung = tested on: NCI-H226 lung
NCI-H522 lung = tested on: NCI-H522 lung
LOX IMVI melanoma = tested on: LOX IMVI melanoma
EKVX NSCLC = tested on: EKVX NSCLC
SR leukemia = tested on: SR leukemia
CCRF-CEM leukemia = tested on: CCRF-CEM leukemia
MALME-3M melanoma = tested on: MALME-3M melanoma
RPMI-8226 leukemia = tested on: RPMI-8226 leukemia
UACC-62 melanoma = tested on: UACC-62 melanoma
UO-31 renal = tested on: UO-31 renal
NCI/ADR-RES ovarian = tested on: NCI/ADR-RES ovarian
RXF 393 renal = tested on: RXF 393 renal
HOP-92 NSCLC = tested on: HOP-92 NSCLC
HOP-62 NSCLC = tested on: HOP-62 NSCLC
PC-3 prostate = tested on: PC-3 prostate
TK-10 renal = tested on: TK-10 renal
ACHN renal = tested on: ACHN renal
HCT-116 colon = tested on: HCT-116 colon
KM12 colon = tested on: KM12 colon
DU-145 prostate = tested on: DU-145 prostate
NCI-H460 lung = tested on: NCI-H460 lung
SW-620 colon = tested on: SW-620 colon
SF-295 CNS = tested on: SF-295 CNS
MCF7 breast = tested on: MCF7 breast
M14 melanoma = tested on: M14 melanoma
BT-549 breast = tested on: BT-549 breast

Nc1nc(Cl)c(C=O)c(NCC2(CO)CC(CCc3ccccc3)C2)n1 (centres undefined)
TGI (HT29 colon): 27.7 µM | TGI (SNB-75 CNS): 37.5 µM | TGI (CAKI-1 renal): 3.14 µM | TGI (A498 renal): 42.1 µM | TGI (SK-MEL-2 melanoma): 19.2 µM | TGI (SNB-19 CNS): 27.9 µM | TGI (U251 CNS): 26.6 µM | TGI (SF-539 CNS): 17.8 µM | TGI (A549 NSCLC): 25.5 µM | TGI (OVCAR-4 ovarian): 4.21 µM | TGI (SN12C renal): 19 µM | TGI (HS 578T breast): 84.6 µM | TGI (OVCAR-3 ovarian): 24.4 µM | TGI (HCC-2998 colon): 4.94 µM | TGI (SK-MEL-28 melanoma): 12.1 µM | TGI (HCT-15 colon): 13.8 µM | TGI (UACC-257 melanoma): 21.3 µM | TGI (COLO 205 colon): 24.2 µM | TGI (T-47D breast): 31 µM | TGI (SK-OV-3 ovarian): 24.4 µM | TGI (OVCAR-8 ovarian): 6.03 µM | TGI (SK-MEL-5 melanoma): 20.3 µM | TGI (HL-60(TB) leukemia): 3.34 µM | TGI (MOLT-4 leukemia): 9.01 µM | TGI (NCI-H23 lung): 5.49 µM | TGI (IGROV1 ovarian): 3.48 µM | TGI (SF-268 CNS): 36.5 µM | TGI (OVCAR-5 ovarian): 33.3 µM | TGI (MDA-MB-231 breast): 23.7 µM | TGI (MDA-MB-435): 17.9 µM | TGI (MDA-N): 18.1 µM | TGI (K-562 leukemia): 4.57 µM | TGI (786-0 renal): 69.5 µM | TGI (NCI-H226 lung): 27.7 µM | TGI (NCI-H522 lung): 3.56 µM | TGI (LOX IMVI melanoma): 10.8 µM | TGI (EKVX NSCLC): 14.1 µM | TGI (SR leukemia): 4.15 µM | TGI (CCRF-CEM leukemia): 31.8 µM | TGI (MALME-3M melanoma): 30.2 µM | TGI (RPMI-8226 leukemia): 35.8 µM | TGI (UACC-62 melanoma): 16.2 µM | TGI (UO-31 renal): 2.91 µM | TGI (NCI/ADR-RES ovarian): 47.6 µM | TGI (RXF 393 renal): 31.5 µM | TGI (HOP-92 NSCLC): 4.46 µM | TGI (HOP-62 NSCLC): 28.6 µM | TGI (PC-3 prostate): 16.3 µM | TGI (TK-10 renal): 62.4 µM | TGI (ACHN renal): 25.8 µM | TGI (HCT-116 colon): 27.3 µM | TGI (KM12 colon): 28.5 µM | TGI (DU-145 prostate): 30.8 µM | TGI (NCI-H460 lung): 33.8 µM | TGI (SW-620 colon): 15.3 µM | TGI (SF-295 CNS): 27 µM | TGI (MCF7 breast): 51.8 µM | TGI (M14 melanoma): 6.25 µM | TGI (BT-549 breast): 27.5 µM

O=C(CCCN1CCC2(CC1)C(=O)NC(=O)N2c1ccccc1)c1ccc(F)cc1
TGI (HT29 colon): > 100 µM | TGI (SNB-75 CNS): > 100 µM | TGI (CAKI-1 renal): > 100 µM | TGI (A498 renal): > 100 µM | TGI (SK-MEL-2 melanoma): > 100 µM | TGI (SNB-19 CNS): > 100 µM | TGI (U251 CNS): > 100 µM | TGI (SF-539 CNS): > 100 µM | TGI (A549 NSCLC): > 100 µM | TGI (OVCAR-4 ovarian): > 100 µM | TGI (SN12C renal): > 100 µM | TGI (HS 578T breast): > 100 µM | TGI (OVCAR-3 ovarian): > 100 µM | TGI (HCC-2998 colon): > 100 µM | TGI (SK-MEL-28 melanoma): > 100 µM | TGI (HCT-15 colon): > 100 µM | TGI (UACC-257 melanoma): > 100 µM | TGI (COLO 205 colon): > 100 µM | TGI (T-47D breast): > 100 µM | TGI (SK-OV-3 ovarian): > 100 µM | TGI (OVCAR-8 ovarian): > 100 µM | TGI (SK-MEL-5 melanoma): > 100 µM | TGI (HL-60(TB) leukemia): > 100 µM | TGI (MOLT-4 leukemia): > 100 µM | TGI (NCI-H23 lung): > 100 µM | TGI (IGROV1 ovarian): > 100 µM | TGI (SF-268 CNS): > 100 µM | TGI (OVCAR-5 ovarian): > 100 µM | TGI (MDA-MB-231 breast): > 100 µM | TGI (MDA-MB-435): > 100 µM | TGI (MDA-N): > 100 µM | TGI (786-0 renal): > 100 µM | TGI (NCI-H226 lung): > 100 µM | TGI (NCI-H522 lung): > 100 µM | TGI (LOX IMVI melanoma): > 100 µM | TGI (EKVX NSCLC): > 100 µM | TGI (SR leukemia): > 100 µM | TGI (CCRF-CEM leukemia): > 100 µM | TGI (MALME-3M melanoma): > 100 µM | TGI (RPMI-8226 leukemia): > 100 µM | TGI (UACC-62 melanoma): > 100 µM | TGI (UO-31 renal): > 100 µM | TGI (NCI/ADR-RES ovarian): > 100 µM | TGI (RXF 393 renal): > 100 µM | TGI (HOP-92 NSCLC): > 100 µM | TGI (HOP-62 NSCLC): > 100 µM | TGI (PC-3 prostate): > 100 µM | TGI (TK-10 renal): > 100 µM | TGI (ACHN renal): > 100 µM | TGI (HCT-116 colon): > 100 µM | TGI (KM12 colon): > 100 µM | TGI (DU-145 prostate): > 100 µM | TGI (NCI-H460 lung): > 100 µM | TGI (SW-620 colon): > 100 µM | TGI (SF-295 CNS): > 100 µM | TGI (MCF7 breast): > 100 µM | TGI (M14 melanoma): > 100 µM | TGI (BT-549 breast): > 100 µM

Cn1c(=O)n2n(c1=O)Cc1cccc3cccc(c13)C2
TGI (HT29 colon): > 100 µM | TGI (SNB-75 CNS): > 100 µM | TGI (CAKI-1 renal): > 100 µM | TGI (A498 renal): > 100 µM | TGI (SK-MEL-2 melanoma): > 100 µM | TGI (SNB-19 CNS): > 100 µM | TGI (U251 CNS): > 100 µM | TGI (SF-539 CNS): > 100 µM | TGI (A549 NSCLC): > 100 µM | TGI (OVCAR-4 ovarian): > 100 µM | TGI (SN12C renal): > 100 µM | TGI (HS 578T breast): > 100 µM | TGI (OVCAR-3 ovarian): > 100 µM | TGI (HCC-2998 colon): > 100 µM | TGI (SK-MEL-28 melanoma): > 100 µM | TGI (HCT-15 colon): > 100 µM | TGI (UACC-257 melanoma): > 100 µM | TGI (COLO 205 colon): > 100 µM | TGI (T-47D breast): > 100 µM | TGI (SK-OV-3 ovarian): > 100 µM | TGI (OVCAR-8 ovarian): > 100 µM | TGI (SK-MEL-5 melanoma): > 100 µM | TGI (HL-60(TB) leukemia): 4.18 µM | TGI (MOLT-4 leukemia): > 100 µM | TGI (NCI-H23 lung): > 100 µM | TGI (SF-268 CNS): > 100 µM | TGI (OVCAR-5 ovarian): > 100 µM | TGI (MDA-MB-231 breast): > 100 µM | TGI (MDA-MB-435): > 100 µM | TGI (MDA-N): > 100 µM | TGI (K-562 leukemia): > 100 µM | TGI (786-0 renal): > 100 µM | TGI (NCI-H226 lung): > 100 µM | TGI (NCI-H522 lung): > 100 µM | TGI (LOX IMVI melanoma): > 100 µM | TGI (EKVX NSCLC): > 100 µM | TGI (SR leukemia): > 100 µM | TGI (CCRF-CEM leukemia): > 100 µM | TGI (MALME-3M melanoma): > 100 µM | TGI (RPMI-8226 leukemia): > 100 µM | TGI (UACC-62 melanoma): > 100 µM | TGI (UO-31 renal): > 100 µM | TGI (NCI/ADR-RES ovarian): > 100 µM | TGI (RXF 393 renal): > 100 µM | TGI (HOP-92 NSCLC): > 100 µM | TGI (PC-3 prostate): > 100 µM | TGI (TK-10 renal): > 100 µM | TGI (ACHN renal): > 100 µM | TGI (HCT-116 colon): > 100 µM | TGI (KM12 colon): > 100 µM | TGI (DU-145 prostate): > 100 µM | TGI (NCI-H460 lung): > 100 µM | TGI (SW-620 colon): > 100 µM | TGI (SF-295 CNS): > 100 µM | TGI (MCF7 breast): > 100 µM | TGI (M14 melanoma): > 100 µM | TGI (BT-549 breast): > 100 µM
